Measured values published in patent US12473250B2, “Molecular design of new antibiotics and antibiotic adjuvants against MCR strains” (priority 2019, dated 2025).

Key:
various pathogens = experiment: organism not typed; format: cell-based
In short: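 Broth microdilution MIC per CLSI: each agent alone and LC compound plus antibiotic (e.g. colistin) combined in equal amounts, serially diluted 2-fold at fixed synergy concentration.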

[1] = tested on: ENT CLOACAE multi-drug resistant strains; experiment: Synergy of LC100 with colistin against multi-drug resistant strains (Table 5); format: cell-based, E. cloacae
Method: The MICs of the individual drugs and LC compound in combinations were determined using the broth microdilution technique as recommended by the CLSI whereby the two anti-microbial agents were added in an equal amount. (e.g.: 50 μL of Colistin: 50 μL of LC compounds). Diluted media containing compounds and antibiotics will be serially diluted 2-fold, and LC compounds and antibiotics alone or in combination will be assayed at fixed synergy concentration. In all cases, the lowest concentration at which no visible growth occurred was be recorded to be the MIC value of individual and combined antibacterial agents. The results were obtained after 24 hours of incubation.

[2] = tested on: KLPN multi-drug resistant strains; experiment: MIC against multi-drug resistant strains (Table 5); format: cell-based, Klebsiella pneumonia; settings: alone
Method: (§1) MIC experiments of the antimicrobial agents were determined by a modified broth microdilution method in accordance with the Clinical and Laboratory Standards Institute (CLSI) guidelines using 96 well culture plates. In brief, serial dilutions of all plates were prepared at different concentrations (μg). The inoculum suspension was prepared by adding isolated colonies from a 18-20 hours on TSA plate into phosphate buffer (0.31 mM, pH 7.2) or in water for injection (BBraun) and adjusting the suspension to a turbidity equivalent to 0.5 McFarland Standard. Each well contained a final bacterial concentration of approximately 5×10^5 colony forming units (CFU)/mL. The plate was covered and incubated at 35° C. for 24 hours. […] For the microdilution plates, turbidity in wells can be measured at OD600 using TECAN infinite M200Pro. MIC was determined as […] concentration that gives a 99 percent inhibition.

[3] = tested on: ENT CLOACAE multi-drug resistant strains; experiment: MIC against multi-drug resistant strains (Table 5); format: cell-based, E. cloacae; settings: alone
Method: as §1

[4] = 6093560257 [MCR 1+, E. Coli, NDM-1]
[5] = 7103531927 [MCR 1+, E. Coli, KPC+]
[6] = 7113636863 [MCR 1+, E. Coli, NDM-1]

CCN(CC)CCCCOc1ccc(/C=C/C(=O)c2ccc(OCCCCN(CC)CC)c(CC=C(C)C)c2O)cc1 [LC100]
Pathogen sensitivity (✓/x), Colistin 0.5 μg+ LC100 1 μg (various pathogens; 6083655967 [MCR 1+, E. Coli]): ✓
Pathogen sensitivity (✓/x), Colistin 0.5 μg+ LC100 2 μg (various pathogens; 6083655967 [MCR 1+, E. Coli]): ✓
Pathogen sensitivity (✓/x), Colistin 1 μg+ LC100 1 μg (various pathogens; 6083655967 [MCR 1+, E. Coli]): ✓
Pathogen sensitivity (✓/x), Colistin 1 μg+ LC100 2 μg (various pathogens; 6083655967 [MCR 1+, E. Coli]): ✓
Pathogen sensitivity (✓/x), Colistin 0.5 μg+ LC100 1 μg (various pathogens; [4]): ✓
Pathogen sensitivity (✓/x), Colistin 0.5 μg+ LC100 2 μg (various pathogens; [4]): ✓
Pathogen sensitivity (✓/x), Colistin 1 μg+ LC100 1 μg (various pathogens; [4]): ✓
Pathogen sensitivity (✓/x), Colistin 1 μg+ LC100 2 μg (various pathogens; [4]): ✓
Pathogen sensitivity (✓/x), Colistin 0.5 μg+ LC100 1 μg (various pathogens; 6123520276 [MCR 1+, E. Coli]): ✓
Pathogen sensitivity (✓/x), Colistin 0.5 μg+ LC100 2 μg (various pathogens; 6123520276 [MCR 1+, E. Coli]): ✓
Pathogen sensitivity (✓/x), Colistin 1 μg+ LC100 1 μg (various pathogens; 6123520276 [MCR 1+, E. Coli]): ✓
Pathogen sensitivity (✓/x), Colistin 1 μg+ LC100 2 μg (various pathogens; 6123520276 [MCR 1+, E. Coli]): ✓
Pathogen sensitivity (✓/x), Colistin 0.5 μg+ LC100 1 μg (various pathogens; 7023436560 [MCR 1+, E. Coli]): ✓
Pathogen sensitivity (✓/x), Colistin 0.5 μg+ LC100 2 μg (various pathogens; 7023436560 [MCR 1+, E. Coli]): ✓
Pathogen sensitivity (✓/x), Colistin 1 μg+ LC100 1 μg (various pathogens; 7023436560 [MCR 1+, E. Coli]): ✓
Pathogen sensitivity (✓/x), Colistin 1 μg+ LC100 2 μg (various pathogens; 7023436560 [MCR 1+, E. Coli]): ✓
Pathogen sensitivity (✓/x), Colistin 0.5 μg+ LC100 1 μg (various pathogens; 7023444207 [MCR 1+, E. Coli]): ✓
Pathogen sensitivity (✓/x), Colistin 0.5 μg+ LC100 2 μg (various pathogens; 7023444207 [MCR 1+, E. Coli]): ✓
Pathogen sensitivity (✓/x), Colistin 1 μg+ LC100 1 μg (various pathogens; 7023444207 [MCR 1+, E. Coli]): ✓
Pathogen sensitivity (✓/x), Colistin 1 μg+ LC100 2 μg (various pathogens; 7023444207 [MCR 1+, E. Coli]): ✓
Pathogen sensitivity (✓/x), Colistin 0.5 μg+ LC100 1 μg (various pathogens; 7023446108 [MCR 1−, E. Coli]): ✓
Pathogen sensitivity (✓/x), Colistin 0.5 μg+ LC100 2 μg (various pathogens; 7023446108 [MCR 1−, E. Coli]): ✓
Pathogen sensitivity (✓/x), Colistin 1 μg+ LC100 1 μg (various pathogens; 7023446108 [MCR 1−, E. Coli]): ✓
Pathogen sensitivity (✓/x), Colistin 1 μg+ LC100 2 μg (various pathogens; 7023446108 [MCR 1−, E. Coli]): ✓
Pathogen sensitivity (✓/x), Colistin 0.5 μg+ LC100 1 μg (various pathogens; 7033607097 [MCR 1−, E. Coli]): ✓
Pathogen sensitivity (✓/x), Colistin 0.5 μg+ LC100 2 μg (various pathogens; 7033607097 [MCR 1−, E. Coli]): ✓
Pathogen sensitivity (✓/x), Colistin 1 μg+ LC100 1 μg (various pathogens; 7033607097 [MCR 1−, E. Coli]): ✓
Pathogen sensitivity (✓/x), Colistin 1 μg+ LC100 2 μg (various pathogens; 7033607097 [MCR 1−, E. Coli]): ✓
Pathogen sensitivity (✓/x), Colistin 0.5 μg+ LC100 1 μg (various pathogens; [5]): ✓
Pathogen sensitivity (✓/x), Colistin 0.5 μg+ LC100 2 μg (various pathogens; [5]): ✓
Pathogen sensitivity (✓/x), Colistin 1 μg+ LC100 1 μg (various pathogens; [5]): ✓
Pathogen sensitivity (✓/x), Colistin 1 μg+ LC100 2 μg (various pathogens; [5]): ✓
Pathogen sensitivity (✓/x), Colistin 0.5 μg+ LC100 1 μg (various pathogens; [6]): ✓
Pathogen sensitivity (✓/x), Colistin 0.5 μg+ LC100 2 μg (various pathogens; [6]): ✓
Pathogen sensitivity (✓/x), Colistin 1 μg+ LC100 1 μg (various pathogens; [6]): ✓
Pathogen sensitivity (✓/x), Colistin 1 μg+ LC100 2 μg (various pathogens; [6]): ✓
Pathogen sensitivity (✓/x), Colistin 0.5 μg+ LC100 1 μg (various pathogens; KLPN ATCC 10031): ✓
Pathogen sensitivity (✓/x), Colistin 0.5 μg+ LC100 1 μg (various pathogens; KLPN CRE 15588): ✓
Pathogen sensitivity (✓/x), Colistin 1 μg+ LC100 1 μg (various pathogens; KLPN CRE 15588): ✓
Pathogen sensitivity (✓/x), Colistin 0.5 μg+ LC100 1 μg (various pathogens; KLPN CRE 16260): ✓
Pathogen sensitivity (✓/x), Colistin 0.5 μg+ LC100 2 μg (various pathogens; KLPN CRE 16260): ✓
Pathogen sensitivity (✓/x), Colistin 0.5 μg+ LC100 5 μg (various pathogens; KLPN CRE 16260): ✓
Pathogen sensitivity (✓/x), Colistin 1 μg+ LC100 1 μg (various pathogens; KLPN CRE 16260): ✓
Pathogen sensitivity (✓/x), Colistin 1 μg+ LC100 2 μg (various pathogens; KLPN CRE 16260): ✓
Pathogen sensitivity (✓/x), Colistin 1 μg+ LC100 5 μg (various pathogens; KLPN CRE 16260): ✓
Pathogen sensitivity (✓/x), Colistin 0.5 μg+ LC100 1 μg (various pathogens; PAE ATCC 15442): ✓
Pathogen sensitivity (✓/x), Colistin 0.5 μg+ LC100 2 μg (various pathogens; PAE ATCC 15442): ✓
Pathogen sensitivity (✓/x), Colistin 1 μg+ LC100 1 μg (various pathogens; PAE ATCC 15442): ✓
Pathogen sensitivity (✓/x), Colistin 0.5 μg+ LC100 1 μg (various pathogens; PAE ATCC BAA-1744): ✓
Pathogen sensitivity (✓/x), Colistin 0.5 μg+ LC100 2 μg (various pathogens; PAE ATCC BAA-1744): ✓
Pathogen sensitivity (✓/x), Colistin 0.5 μg+ LC100 1 μg (various pathogens; PAE DM 4150): ✓
Pathogen sensitivity (✓/x), Colistin 0.5 μg+ LC100 2 μg (various pathogens; PAE DM 4150): ✓
Pathogen sensitivity (✓/x), Colistin 0.5 μg+ LC100 5 μg (various pathogens; PAE DM 4150): ✓
Pathogen sensitivity (✓/x), Colistin 0.5 μg+ LC100 1 μg (various pathogens; PAE DM 23155): ✓
Pathogen sensitivity (✓/x), Colistin 0.5 μg+ LC100 2 μg (various pathogens; PAE DM 23155): ✓
Pathogen sensitivity (✓/x), Colistin 1 μg+ LC100 1 μg (various pathogens; PAE DM 23155): ✓
Pathogen sensitivity (✓/x), Colistin 1 μg+ LC100 2 μg (various pathogens; PAE DM 23155): ✓
Pathogen sensitivity (✓/x), Colistin 0.5 μg+ LC100 1 μg (various pathogens; PAE DM 23257): ✓
Pathogen sensitivity (✓/x), Colistin 0.5 μg+ LC100 2 μg (various pathogens; PAE DM 23257): ✓
Pathogen sensitivity (✓/x), Colistin 0.5 μg+ LC100 5 μg (various pathogens; PAE DM 23257): ✓
Pathogen sensitivity (✓/x), Colistin 1 μg+ LC100 1 μg (various pathogens; PAE DM 23257): ✓
Pathogen sensitivity (✓/x), Colistin 0.5 μg+ LC100 1 μg (various pathogens; PAE DM 23376): ✓
Pathogen sensitivity (✓/x), Colistin 0.5 μg+ LC100 2 μg (various pathogens; PAE DM 23376): ✓
Pathogen sensitivity (✓/x), Colistin 0.5 μg+ LC100 1 μg (various pathogens; PAE DR 5790): ✓
Pathogen sensitivity (✓/x), Colistin 0.5 μg+ LC100 1 μg (various pathogens; PAE DU 14476): ✓
Pathogen sensitivity (✓/x), Colistin 0.5 μg+ LC100 2 μg (various pathogens; PAE DU 14476): ✓
Pathogen sensitivity (✓/x), Colistin 0.5 μg+ LC100 5 μg (various pathogens; PAE DU 14476): ✓
Pathogen sensitivity (✓/x), Colistin 1 μg+ LC100 1 μg (various pathogens; PAE DU 14476): ✓
Colistin MIC in the presence of LC100 ([1]; strain ENT CLOACAE 6780, LC 100 2 μg): 0.39 µg/mL
Colistin MIC in the presence of LC100 ([1]; strain ENT CLOACAE 6780, LC 100 5 μg): <0.0975 µg/mL
Colistin MIC in the presence of LC100 ([1]; strain ENT CLOACAE 21489, LC 100 2 μg): 0.195 µg/mL
Colistin MIC in the presence of LC100 ([1]; strain ENT CLOACAE 21489, LC 100 5 μg): <0.0975 µg/mL
Colistin MIC in the presence of LC100 ([1]; strain ENT CLOACAE 30063, LC 100 2 μg): 25 µg/mL
Colistin MIC in the presence of LC100 ([1]; strain ENT CLOACAE 30063, LC 100 5 μg): 6.25 µg/mL
Colistin MIC in the presence of LC100 ([1]; strain ENT CLOACAE 44095, LC 100 2 μg): >25 µg/mL
Colistin MIC in the presence of LC100 ([1]; strain ENT CLOACAE 44095, LC 100 5 μg): >25 µg/mL
MIC ([2]; strain KLPN 8852): >50 µg/mL
MIC ([2]; strain KLPN 15588): >50 µg/mL
MIC ([2]; strain KLPN 24076): >50 µg/mL
MIC ([2]; strain KLPN 27025): >50 µg/mL
MIC ([3]; strain ENT CLOACAE 6780): >50 µg/mL
MIC ([3]; strain ENT CLOACAE 21489): >50 µg/mL
MIC ([3]; strain ENT CLOACAE 30063): >50 µg/mL
MIC ([3]; strain ENT CLOACAE 44095): >50 µg/mL
